Laboratory results: patent US9266904B2, “6-bridged heteroaryldihydropyrimidines for the treatment and prophylaxis of hepatitis B virus infection” (priority 2013, dated 2016)
Values after ≈ are worked out from the molar mass of the structure shown. Where two headings read alike, the source gives them in different places.

Columns and labels:
[1] = Human microsomal clearance assay; type: in vitro ADME
How it was run: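 Liver microsomes (0.5 mg/mL protein) were incubated with 1 μM compound at 37 °C, pH 7.4 phosphate, with an NADPH-regenerating system. Samples at 0-30 min were quenched and measured by LC-MS/MS for parent loss. No-NADPH controls were included.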

[2] = test system: HBV replication in HepG2.2.15 cells; assay: Anti-HBV activity in vitro in HepG2.2.15 cells (extracellular HBV DNA by qPCR); type: cell-based; settings: Hepatitis B virus, HepG2.2.15, Anti-HBV activity in HepG2.2.15 cells; read-out: EC50
How it was run: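 Constitutively HBV-producing HepG2.2.15 cells were seeded overnight at 37 °C, then treated with half-log serial dilutions of compound (0.5% DMSO final) for five days. Supernatant HBV DNA was extracted and quantified by qPCR; EC50 is the concentration inhibiting HBV replication by 50%.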

[3] = Lyophilisation solubility assay (Lysa); type: physicochemical; settings: thermodynamic from solid
How it was run: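 DMSO was evaporated from 10 mM stocks, and residues were taken up in 0.05 M phosphate buffer pH 6.5, stirred 1 h, shaken 2 h and left overnight. Filtrates were quantified by UV or HPLC-UV against a four-point calibration, in duplicate. Values are in μg/ml, with a lower-bound value when >80% dissolved.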

[4] = Cytotoxicity (CCK-8 cell viability) and selectivity index; type: cell-based, human; settings: human, HepDE19 cells; cytotoxicity, concentration resulting in death of 50% of host cells
How it was run: (§1)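 HepDE19 cells (5×10^3/well) were treated with compounds as for the EC50 runs and, after 5 days, given CCK-8 for 2 h at 37° C. Absorbance was read at OD450 and OD630, and CC50 was taken as the concentration killing 50% of host cells.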

HepDE19 cells = assay: as above; type: cell-based, human; settings: CC50 value/EC50 value
How it was run: as §1

[5] = aqueous buffer, 0.05 M phosphate buffer (pH 6.5), reported as bigger than the value if more than 80% of the sample is in solution, read-out: Lysa

SMILES	CLh ([1]; human, 1 μM, pH 7.4) [mL/min/kg]	EC50 [2] [nM]	solubility thermodynamic ([3]; pH 6.5, aqueous buffer) [µg/mL]	CC50 at 5 days [4] [nM]	Selectivity index (CC50/EC50) (HepDE19 cells)	CLh ([1]; human microsomal clearance) [mL/min/kg]	solubility thermodynamic [3, 5] [µg/mL]
COC(=O)C1=C(CN2C3CC(F)(F)C2C[C@@](O)(CC(=O)O)C3)NC(c2nccs2)=N[C@H]1c1ccc(F)cc1Cl (single isomer, unassigned) [Example 116]	2.6	7.3	495 (≈ 846 µM)	> 100000	>13699		
COC(=O)C1=C(CN2C3CC(F)(F)C2C[C@@](O)(CC(=O)O)C3)NC(c2nccs2)=N[C@@H]1c1ccc(F)c(F)c1C (single isomer, unassigned) [Example 118]	3.1	5	112 (≈ 192 µM)	45000	8960		
COC(=O)C1=C(CN2C3CC(F)(F)C2C[C@@](O)(CC(=O)O)C3)NC(c2nccs2)=N[C@H]1c1cccc(F)c1Cl (single isomer, unassigned) [Example 120]	0	9.6	317 (≈ 542 µM)	87000	9083		
COC(=O)C1=C(CN2C3COCC2CC(O)(CO)C3)NC(c2nccs2)=N[C@H]1c1ccc(F)cc1Cl (stereo partly drawn) [Example 10, (R)-4-(2-Chloro-4-fluoro-phenyl)-6-(7-hydroxy-7-hydroxymethyl-3-oxa-9-aza-bicyclo[3.3.1]non-9-ylmethyl)-2-thiazol-2-yl-1,4-dihydro-pyrimidine-5-carboxylic acid methyl ester]		8.8	435 (≈ 810 µM)	> 100000	>11364		
COC(=O)C1=C(CN2C3COCC2CC(CC(=O)O)C3)NC(c2nccs2)=N[C@H]1c1ccc(F)cc1Br (stereo partly drawn) [Example 28, (R)-4-(2-Bromo-4-fluoro-phenyl)-6-(7-carboxymethyl-3-oxa-9-aza-bicyclo[3.3.1]non-9-ylmethyl)-2-thiazol-2-yl-1,4-dihydro-pyrimidine-5-carboxylic acid methyl ester]	0.6	15	> 655	> 100000	>9804		
COC(=O)C1=C(CN2C3COCC2c2c(n(C)[nH]c2=O)C3)NC(c2nccs2)=N[C@H]1c1ccc(F)cc1Cl (stereo partly drawn) [Example 33, (R)-4-(2-Chloro-4-fluoro-phenyl)-6-(5-methyl-3-oxo-10-oxa-4,5,12-triaza-tricyclo[6.3.1.0*2,6*]dodec-2(6)-en-12-ylmethyl)-2-thiazol-2-yl-1,4-dihydro-pyrimidine-5-carboxylic acid methyl ester]		11	100 (≈ 179 µM)	> 100000	>9091		
COC(=O)C1=C(CN2CC3(CO)CC2CO3)NC(c2nccs2)=N[C@H]1c1ccc(F)cc1Cl (some centres unmarked) [Example 39]		32		> 100000	>5848	7.4	> 610
CCOC(=O)C1=C(CN2C3COCC2C(C(=O)O)C3)NC(c2nccs2)=N[C@H]1c1ccc(F)cc1Br (stereo partly drawn) [Example 52, 8-[[(4R)-4-(2-bromo-4-fluoro-phenyl)-5-ethoxycarbonyl-2-thiazol-2-yl-1,4-dihydropyrimidin-6-yl]methyl]-3-oxa-8-azabicyclo[3.2.1]octane-6-carboxylic acid]	2.7	17.9	> 630	> 100000	>5587		
COC(=O)C1=C(CN2C3COCC2CN(C(N)=O)C3)NC(c2nccs2)=N[C@H]1c1ccc(F)cc1Br [Example 54, Methyl (4R)-4-(2-bromo-4-fluoro-phenyl)-6-[(7-carbamoyl-3-oxa-7,9-diazabicyclo[3.3.1]nonan-9-yl)methyl]-2-thiazol-2-yl-1,4-dihydropyrimidine-5-carboxylate]	6.5	8.2	119 (≈ 205 µM)	60000	7300		
COC(=O)C1=C(CN2[C@@H]3COC[C@H]2C[C@H](CC(=O)O)C3)NC(c2nccs2)=N[C@H]1c1ccc(F)cc1Br [Example 58, 2-[(1S,5R)-9-[[(4R)-4-(2-bromo-4-fluoro-phenyl)-5-methoxycarbonyl-2-thiazol-2-yl-1,4-dihydropyrimidin-6-yl]methyl]-3-oxa-9-azabicyclo[3.3.1]nonan-7-yl]acetic acid]	2.1	11.4	> 701	> 100000	>8772		
COC(=O)C1=C(CN2[C@@H]3COC[C@H]2C[C@H](CC(=O)O)C3)NC(c2nccs2)=N[C@H]1c1cccc(F)c1Cl [Example 59, Exo-2-[(1S,5R)-9-[[(4R)-4-(2-chloro-3-fluoro-phenyl)-5-methoxycarbonyl-2-thiazol-2-yl-1,4-dihydropyrimidin-6-yl]methyl]-3-oxa-9-azabicyclo[3.3.1]nonan-7-yl]acetic acid]	2.1	15.6	> 732	> 100000	>6410		
COC(=O)C1=C(CN2[C@@H]3COC[C@H]2C[C@H](NC(N)=O)C3)NC(c2nccs2)=N[C@H]1c1ccc(F)cc1Cl [Example 62, Methyl (4R)-4-(2-chloro-4-fluoro-phenyl)-2-thiazol-2-yl-6-[[(1S,5R)-7-exo-ureido-3-oxa-9-azabicyclo[3.3.1]nonan-9-yl]methyl]-1,4-dihydropyrimidine-5-carboxylate]	4.6	7		46000	6571		
COC(=O)C1=C(CN2[C@@H]3COC[C@H]2C[C@H](NS(N)(=O)=O)C3)NC(c2nccs2)=N[C@H]1c1ccc(F)cc1Cl [Example 63, Methyl (4R)-4-(2-chloro-4-fluoro-phenyl)-6-[[(1R,5S)-7-exo-(sulfamoylamino)-3-oxa-9-azabicyclo[3.3.1]nonan-9-yl]methyl]-2-thiazol-2-yl-1,4-dihydropyrimidine-5-carboxylate]	4.1	1.5		34000	22367		
COC(=O)C1=C(CN2[C@H]3COC[C@@H]2[C@H](CC(=O)O)C3)NC(c2nccs2)=N[C@H]1c1ccc(F)cc1Br [Example 64, 2-[(1R,5S,6S)-8-[[(4R)-4-(2-bromo-4-fluoro-phenyl)-5-methoxycarbonyl-2-thiazol-2-yl-1,4-dihydropyrimidin-6-yl]methyl]-3-oxa-8-azabicyclo[3.2.1]octan-6-yl]acetic acid]	2.6	16.6	660 (≈ 1140 µM)	> 100000	>6024		
CCOC(=O)C1=C(CN2[C@@H]3COC[C@H]2C[C@@H](CC(=O)O)C3)NC(c2nccs2)=N[C@H]1c1cccc(F)c1Cl [Example 65, Endo-2-[(1S,5R)-9-[[(4R)-4-(2-chloro-3-fluoro-phenyl)-5-ethoxycarbonyl-2-thiazol-2-yl-1,4-dihydropyrimidin-6-yl]methyl]-3-oxa-9-azabicyclo[3.3.1]nonan-7-yl]acetic acid]	2.8	11.8	375 (≈ 666 µM)	71000	5980		
COC(=O)C1=C(CN2[C@@H]3C[C@@H](CC(=O)O)C[C@H]2C(F)(F)C3)NC(c2nccs2)=N[C@H]1c1ccc(F)c(F)c1C [Example 111, 2-[(1R,3R,5S)-8-[[(4S)-4-(3,4-difluoro-2-methyl-phenyl)-5-methoxycarbonyl-2-thiazol-2-yl-1,4-dihydropyrimidin-6-yl]methyl]-6,6-difluoro-8-azabicyclo[3.2.1]octan-3-yl]acetic acid]	4.8	1.2		79000	65983		
CCOC(=O)C1=C(CN2C3COCC2C(F)(F)[C@H](CC(=O)O)C3)NC(c2nccs2)=N[C@H]1c1ccc(F)c(F)c1C (stereo partly drawn) [Example 128, 2-[(7S)-9-[[(4S)-4-(3,4-difluoro-2-methyl-phenyl)-5-ethoxycarbonyl-2-thiazol-2-yl-1,4-dihydropyrimidin-6-yl]methyl]-6,6-difluoro-3-oxa-9-azabicyclo[3.3.1]nonan-7-yl]acetic acid]	3.8	2.5		35000	14056		
COC(=O)C1=C(CN2CC3(CNC(C)=O)CC2CO3)NC(c2nccs2)=N[C@H]1c1ccc(F)cc1Cl (stereo partly drawn) [Example 145, Methyl (4R)-6-[[4-(acetamidomethyl)-5-oxa-2-azabicyclo[2.2.1]heptan-2-yl]methyl]-4-(2-chloro-4-fluoro-phenyl)-2-thiazol-2-yl-1,4-dihydropyrimidine-5-carboxylate]		17		> 100000	>5882		585 (≈ 1100 µM)
